Laboratory results published in US20240245770A1, “COMPOSITIONS AND METHODS FOR TREATING NEUROMUSCULAR DISORDERS” (The Regents of the University of California, priority 2019, published 2024).

System: Oral squamous carcinoma cells (OSCCs) and Oral squamous stem cell carcinoma (OSCSCs)
Experiment: NAC blocking of CDDP mediated cell death (PI staining, flow cytometry)
Type: cell-based, human
Conditions: NAC 20 mM, 24 hours, OSCCs and OSCSCs
Procedure: Testing and selection of the best NAC to be used in ALS treatment. […] Afterwards OSCCs and OSCSCs were detached, and the viability of cells was determined after PI staining followed by flow cytometric analysis. In this figure Forward and Side Scatters (Fs/ss) were assessed since decrease in the Fs/ss is seen in cells undergoing cell death.
Testing and selection of the best NAC to be used in ALS treatment. […] Afterwards OSCCs and OSCSCs were detached, and the viability of cells was determined after PI staining followed by flow cytometric analysis. In this figure the percentage of PI stained cells were assessed.

`CC(=O)N[C@@H](CS)C(=O)O` [NAC, N-Acetyl-Cysteine] was tested, and the “CDDP mediated cell death, Forward and Side Scatters (Fs/ss)” value (FIG. 65) was “blocks CDDP mediated Cell death in Oral tumors” and the “CDDP mediated cell death, percentage of PI stained cells” value (FIG. 66) was “blocks CDDP mediated Cell death in Oral tumors”.
